The term IC50 denotes the concentration at which inhibition is half-maximal. A higher IC50 goes with weaker potency.

In this test the target is T1, FXR (Homo sapiens, UniProt Q96RI1).
T1 construct: 5 μL of 20 nM FXR-LBD Complete Coregulator buffer G; purchased ThermoFisher PV4833
T1 sequence (Q96RI1 262-486 limits assumed): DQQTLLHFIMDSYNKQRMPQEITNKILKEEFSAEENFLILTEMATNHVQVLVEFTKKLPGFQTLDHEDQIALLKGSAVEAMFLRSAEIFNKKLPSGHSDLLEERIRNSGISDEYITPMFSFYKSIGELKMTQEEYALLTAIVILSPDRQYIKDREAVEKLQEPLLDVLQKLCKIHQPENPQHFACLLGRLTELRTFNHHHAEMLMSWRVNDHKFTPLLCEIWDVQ
Nature of the test: FXR antagonist screening by TR-FRET (LanthaScreen TR-FRET FXR co-activation assay kit). It counts as biochemical. The conditions noted are these: TR-FRET with CDCA, geometric means of at least two independent runs. On the procedure: FXR activity was evaluated by time-resolved fluorescence resonance energy transfer (TR-FRET) assay, using LanthaScreen™ TR-FRET FXR co-activation assay kit (ThermoFisher, Cat. PV4833). For agonist screening, 10 μL of Complete Coregulator buffer G containing the corresponding concentration of the compound to be tested, 5 μL of 20 nM FXR-LBD Complete Coregulator buffer G, and 5 μL of 2.0 μM Fluorescein-SRC2-2/20 nM Tb-anti-GST antibody Complete Coregulator buffer G were added to each well of a 384-well black plate (Coring) in sequence. […] Three duplicate wells were set up for each compound, with CDCA as the positive compound and DMSO as the solvent control. For antagonist screening, 5 μL of Complete Coregulator buffer G containing the corresponding concentration of the compound to be tested, 5 μL of 20 nM FXR-LBD Complete Coregulator buffer G, 5 μL of 200 μM CDCA FXR-LBD Complete Coregulator buffer G, and 5 μL of 2.0 μM Fluorescein-SRC2-2/20 nM Tb-anti-GST antibody Complete Coregulator buffer G were added to each well of a 384-well black plate (Coring) in sequence and incubated at room temperature for 10 h. Following operations were the same as those for agonist screening
A general note: In TR-FRET formats the signal depends on donor and acceptor labels being close together.

Where [1] appears, read: Table 1.1, FXR antagonistic activity.
The mark [2] stands for this setting: Table 1.2, FXR antagonistic activity.

Compound `CCOC(=O)c1oc2ccc(S(=O)(=O)N(CCc3ccccc3)Cc3ccccc3)cc2c1C` [Example F27-S8, ethyl 5-(N-benzyl-N-phenethylsulfamoyl)-3-methylbenzofuran-2-carboxylate] returned an IC50 under setting [1] of 50 to 100 µM.

`Cc1c(C(=O)O)oc2ccc(S(=O)(=O)N(CCc3ccccc3)c3ccccc3)cc12` [Example F27-S10, 3-methyl-5-(N-phenethyl-N-phenylsulfamoyl)benzofuran-2-carboxylic acid]: the concentration for half-maximal inhibition (IC50) under setting [1] was in the range of 50 to 100 µM.

`Cc1c(C(=O)O)oc2ccc(S(=O)(=O)N(CCc3ccccc3)CCc3ccccc3)cc12` [Example F27-S13, 3-methyl-5-(N,N-diphenylethylsulfamoyl)benzofuran-2-carboxylic acid] yielded an IC50 under setting [1] of 10 to 50 µM.

With `Cc1c(C(=O)O)oc2ccc(S(=O)(=O)N(CCc3ccccc3)Cc3ccc(Br)cc3)cc12` [Example F27-S30, 3-methyl-5-(N-(4-bromobenzyl)-N-phenethylsulfamoyl)benzofuran-2-carboxylic acid], under setting [1], the IC50 was in the range of 10 to 50 µM.

Under setting [1], `Cc1c(C(=O)O)oc2ccc(S(=O)(=O)N(CCc3ccccc3)Cc3ccc(C(=O)OC(C)(C)C)cc3)cc12` [Example F27-S40, 3-methyl-5-(N-(4-(tert-butoxycarbonyl)benzyl)-N-phenethylsulfamoyl)benzofuran-2-carboxylic acid] came in with an IC50 of 10 to 50 µM.

On to `Cc1c(C(=O)O)oc2ccc(S(=O)(=O)N(CCc3ccccc3)Cc3cccc4cccnc34)cc12` [Example F27-S44, 3-methyl-5-(N-(quinolin-8-ylmethyl)-N-phenethylsulfamoyl)benzofuran-2-carboxylic acid], for which the IC50 under setting [1] was in the range of 10 to 50 µM.

In the case of `Cc1c(C(=O)O)oc2ccc(S(=O)(=O)N(CCc3ccccc3)c3ccc(N4CCN(S(C)(=O)=O)CC4)cc3)cc12` [Example F27-S72, 3-methyl-5-(N-(4-(4-(methylsulfonyl)piperazin-1-yl)phenyl)-N-phenethylsulfamoyl)benzofuran-2-carboxylic acid], the IC50 under setting [1] fell in the range of 50 to 100 µM.

In turn, `Cc1c(C(=O)O)oc2ccc(S(=O)(=O)N(CCc3ccccc3)Cc3ccc(N4CCN(C)CC4)cc3)cc12` [Example F27-S80, 3-methyl-5-(N-(4-(4-methylpiperazin-1-yl)benzyl)-N-phenethylsulfamoyl)benzofuran-2-carboxylic acid] displayed an IC50 under setting [1] of 50 to 100 µM.

`Cc1c(C(=O)O)oc2ccc(S(=O)(=O)N(CCc3ccccc3)Cc3ccc(N4CCN(C(=O)OC(C)(C)C)CC4)cc3)cc12` [Example F27-S81, 3-methyl-5-(N-(4-(4-(tert-butoxycarbonyl)piperazin-1-yl)benzyl)-N-phenethylsulfamoyl)benzofuran-2-carboxylic acid] displayed an IC50 under setting [1] of 10 to 50 µM.

In turn, `Cc1c(C(=O)O)oc2ccc(S(=O)(=O)N(CCc3ccccc3)Cc3ccc(Oc4ccccc4)cc3)cc12` [Example F27-S86] showed an IC50 under setting [1] of 10 to 50 µM.

Turning to `Cc1c(C(=O)O)oc2ccc(S(=O)(=O)N(CCc3ccccc3)Cc3ccccc3N3CCN(C(=O)OC(C)(C)C)CC3)cc12` [Example F27-S87, 3-methyl-5-(N-(2-(4-(tert-butoxycarbonyl)piperazin-1-yl)benzyl)-N-phenethylsulfamoyl)benzofuran-2-carboxylic acid], under setting [1], the IC50 lay in the range of 0.1 to 10 µM.

Take `Cc1ccc(C(=O)N2CCN(c3ccccc3N(CCc3ccccc3)S(=O)(=O)c3ccc4oc(C(=O)O)c(C)c4c3)CC2)cc1` [Example F27-S106, 3-methyl-5-(N-(2-(4-(4-methylbenzoyl)piperazin-1-yl)phenyl)-N-phenethylsulfamoyl)benzofuran-2-carboxylic acid]: the IC50 under setting [2] fell in the range of 0.1 to 10 µM.

`Cc1ccccc1C(=O)N1CCN(c2ccccc2N(CCc2ccccc2)S(=O)(=O)c2ccc3oc(C(=O)O)c(C)c3c2)CC1` [Example F27-S107, 3-methyl-5-(N-(2-(4-(2-methylbenzoyl)piperazin-1-yl)phenyl)-N-phenethylsulfamoyl)benzofuran-2-carboxylic acid]: under setting [2], the IC50 lay within 0.1 to 10 µM.

In turn, `Cc1cccc(C(=O)N2CCN(c3ccccc3N(CCc3ccccc3)S(=O)(=O)c3ccc4oc(C(=O)O)c(C)c4c3)CC2)c1` [Example F27-S108, 3-methyl-5-(N-(2-(4-(3-methylbenzoyl)piperazin-1-yl)phenyl)-N-phenethylsulfamoyl)benzofuran-2-carboxylic acid] showed an IC50 under setting [2] of 0.1 to 10 µM.

In the case of `CC(=O)Nc1ccc(C(=O)N2CCN(c3ccccc3N(CCc3ccccc3)S(=O)(=O)c3ccc4oc(C(=O)O)c(C)c4c3)CC2)cc1` [Example F27-S109, 5-(N-(2-(4-(4-acetamidobenzoyl)piperazin-1-yl)phenyl)-N-phenethylsulfamoyl)-3-methylbenzofuran-2-carboxylic acid], the IC50 under setting [2] fell in the range of 0.1 to 10 µM.

With `Cc1c(C(=O)O)oc2ccc(S(=O)(=O)N(CCc3ccccc3)c3ccccc3N3CCN(C(=O)c4ccc(C(F)(F)F)cc4)CC3)cc12` [Example F27-S110, 3-methyl-5-(N-phenethyl-N-(2-(4-(4-(trifluoromethyl)benzoyl)piperazin-1-yl)phenyl)sulfamoyl)benzofuran-2-carboxylic acid], the IC50 under setting [2] lay within 0.1 to 10 µM.

`Cc1c(C(=O)O)oc2ccc(S(=O)(=O)N(CCc3ccccc3)c3ccccc3N3CCN(C(=O)c4ccc(F)cc4)CC3)cc12` [Example F27-S112, 5-(N-(2-(4-(4-fluorobenzoyl)piperazin-1-yl)phenyl)-N-phenethylsulfamoyl)-3-methylbenzofuran-2-carboxylic acid] registered an IC50 under setting [2] of 0.1 to 10 µM.

`Cc1c(C(=O)O)oc2ccc(S(=O)(=O)N(CCc3ccccc3)c3ccccc3N3CCN(C(=O)c4ccc(NC(=O)OC(C)(C)C)cc4)CC3)cc12` [Example F27-S113] came in with a half-maximal inhibitory concentration (IC50) under setting [2] of 0.1 to 10 µM.

The compound `Cc1c(C(=O)O)oc2ccc(S(=O)(=O)N(CCc3ccccc3)c3ccccc3N3CCN(C(=O)c4ccc([N+](=O)[O-])cc4)CC3)cc12` [Example F27-S114, 3-methyl-5-(N-(2-(4-(4-nitrobenzoyl)piperazin-1-yl)phenyl)-N-phenethylsulfamoyl)benzofuran-2-carboxylic acid] yielded an IC50 under setting [2] of 0.1 to 10 µM.

For `CC(=O)c1ccc(C(=O)N2CCN(c3ccccc3N(CCc3ccccc3)S(=O)(=O)c3ccc4oc(C(=O)O)c(C)c4c3)CC2)cc1` [Example F27-S115, 5-(N-(2-(4-(4-acetylbenzoyl)piperazin-1-yl)phenyl)-N-phenethylsulfamoyl)-3-methylbenzofuran-2-carboxylic acid], under setting [2], the IC50 lay within 0.1 to 10 µM.

As to `Cc1c(C(=O)O)oc2ccc(S(=O)(=O)N(CCc3ccccc3)c3ccccc3N3CCN(C(=O)c4cccnc4)CC3)cc12` [Example F27-S116, 3-methyl-5-(N-(2-(4-nicotinoylpiperazin-1-yl)phenyl)-N-phenethylsulfamoyl)benzofuran-2-carboxylic acid], under setting [2], the IC50 is 0.1 to 10 µM.

As to `Cc1c(C(=O)O)oc2ccc(S(=O)(=O)N(CCc3ccccc3)c3ccccc3N3CCN(C(=O)c4ccccn4)CC3)cc12` [Example F27-S117, 3-methyl-5-(N-phenethyl-N-(2-(4-pyridinecarbonylpiperazin-1-yl)phenyl)sulfamoyl)benzofuran-2-carboxylic acid], the IC50 under setting [2] lay within 0.1 to 10 µM.

With `Cc1c(C(=O)O)oc2ccc(S(=O)(=O)N(CCc3ccccc3)c3ccccc3N3CCN(C(=O)c4cccs4)CC3)cc12` [Example F27-S118, 3-methyl-5-(N-phenethyl-N-(2-(4-(thiophene-2-carbonyl)piperazin-1-yl)phenyl)sulfamoyl)benzofuran-2-carboxylic acid], the IC50 under setting [2] fell in the range of 0.1 to 10 µM.

Take `Cc1c(C(=O)O)oc2ccc(S(=O)(=O)N(CCc3ccccc3)c3ccccc3N3CCN(C(=O)c4ccsc4)CC3)cc12` [Example F27-S119, 3-methyl-5-(N-phenethyl-N-(2-(4-(thiophene-3-carbonyl)piperazin-1-yl)phenyl)sulfamoyl)benzofuran-2-carboxylic acid]: the IC50 under setting [2] lay within 0.1 to 10 µM.

The compound `C/C=C/C(=O)N1CCN(c2ccccc2N(CCc2ccccc2)S(=O)(=O)c2ccc3oc(C(=O)O)c(C)c3c2)CC1` [Example F27-S120, (E)-5-(N-(2-(4-(but-2-enoyl)piperazin-1-yl)phenyl)-N-phenethylsulfamoyl)-3-methylbenzofuran-2-carboxylic acid] came in with an IC50 under setting [2] of 0.1 to 10 µM.

In the case of `Cc1c(C(=O)O)oc2ccc(S(=O)(=O)N(CCc3ccccc3)c3ccccc3N3CCN(C(=O)c4ccco4)CC3)cc12` [Example F27-S121, 5-(N-(2-(4-(furan-2-carbonyl)piperazin-1-yl)phenyl)-N-phenethylsulfamoyl)-3-methylbenzofuran-2-carboxylic acid], under setting [2], the IC50 was in the range of 0.1 to 10 µM.

With `Cc1c(C(=O)O)oc2ccc(S(=O)(=O)N(CCc3ccccc3)c3ccccc3N3CCN(C(=O)C4CCCC4)CC3)cc12` [Example F27-S122, 5-(N-(2-(4-(cyclopentanecarbonyl)piperazin-1-yl)phenyl)-N-phenethylsulfamoyl)-3-methylbenzofuran-2-carboxylic acid], the IC50 under setting [2] lay within 0.1 to 10 µM.

For the origin of these results see patent US20240239775A1, “FXR REGULATOR, PREPARATION METHOD THEREFOR, PHARMACEUTICAL COMPOSITION THEREOF AND USE THEREOF” (QINGDAO RUIJI MEDICAL TECHNOLOGY CO., LTD., priority 2021, published 2024).
